Measured values: patent US11352350B2, “IRAK degraders and uses thereof” (Kymera Therapeutics, Inc., priority 2018, dated 2022)
Read-outs that look alike come from different tables or passages of the source.

Assays:
IRAK4 = IRAK4 (Homo sapiens (Human), UniProt Q9NWZ3); test: IRAK4 MSD degradation in OCI-LY10; assay type: cell-based
How it was run: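 Remaining IRAK4 quantified by electrochemiluminescent MSD sandwich assay with two anti-IRAK4 antibodies. Compounds were dosed as 8 concentrations in 1:3 steps from a 1 to 10 μM final top on OCI-LY10 cells, incubated 4 to 24 h at 37° C. under 5% CO2. DC50 fitted with a three-parameter logistic curve.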

OCI-LY10 = test: CTG Cell Viability Assay - OCI-LY10; assay type: cell-based, human; conditions: Homo sapiens, OCI-Ly10, 96 h, OCI-LY10, 4 days; read-out: CTG Cell Viability Assay - OCI-LY10: Average external-IC50
How it was run: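 Viability read by CellTiter-Glo luminescence after 4 days at 37° C under 5% CO2 with compound (top 10 μM final, 1:3 steps, 9 doses, DMSO 0.2%). Three-parameter logistic fit gave IC50.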

[1] = OCI-LY10, 4 hrs, read-out: IRAK4 MSD degradation in OCI-LY10 at 4 hrs: DC50
[2] = OCI-LY10, 24 hrs, read-out: IRAK4 MSD degradation in OCI-LY10 at 24 hrs: DC50
[3] = OCI-LY10, 4 hrs, MSD, read-out: IRAK4 MSD degradation in OCI-LY10 at 4 hrs: Average external-Abs DC50
[4] = OCI-LY10, 24 hrs, MSD, read-out: IRAK4 MSD degradation in OCI-LY10 at 24 hrs: Average external-Abs DC50

Sequence of IRAK4 (Q9NWZ3 whole entry): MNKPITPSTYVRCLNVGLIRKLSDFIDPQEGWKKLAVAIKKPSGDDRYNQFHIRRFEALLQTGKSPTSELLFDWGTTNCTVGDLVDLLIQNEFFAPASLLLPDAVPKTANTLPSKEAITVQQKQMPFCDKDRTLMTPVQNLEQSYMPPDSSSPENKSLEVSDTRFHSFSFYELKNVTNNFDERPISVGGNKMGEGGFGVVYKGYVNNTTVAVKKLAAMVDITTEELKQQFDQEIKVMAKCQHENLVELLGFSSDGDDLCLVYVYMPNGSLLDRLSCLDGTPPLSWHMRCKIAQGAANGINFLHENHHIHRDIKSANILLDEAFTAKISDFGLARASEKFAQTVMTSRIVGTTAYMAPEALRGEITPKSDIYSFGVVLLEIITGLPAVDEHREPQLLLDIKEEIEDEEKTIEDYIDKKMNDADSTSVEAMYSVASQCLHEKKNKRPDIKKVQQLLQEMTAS

Structure (SMILES) | DC50 (IRAK4; [1]) | DC50 (IRAK4; [2]) | IC50 (OCI-LY10) | DC50 (IRAK4; [3]) | DC50 (IRAK4; [4])
CN(CCCN1CCO[C@H](CNc2cccc3c2C(=O)N(C2CCC(=O)NC2=O)C3=O)C1)C[C@H]1CC[C@H](n2cc(NC(=O)c3cnn4ccc(N5C[C@H]6C[C@@H]5CO6)nc34)c(C(F)F)n2)CC1 (stereo partly drawn) [I-475] | 10 to 100 nM | < 10 nM | < 50 nM | – | –
Cn1c(=O)n(C2CCC(=O)NC2=O)c2cccc(CN3CCC(CCN4CC(n5cc(NC(=O)c6coc(-c7ccnc(NCC8CC8)c7)n6)c(C(F)F)n5)C4)CC3)c21 (stereo not drawn) [I-263] | – | – | < 50 nM | 10 to 100 nM | –
Cn1c(=O)n(C2CCC(=O)NC2=O)c2cccc(CCCOC3CCN(C[C@H]4CC[C@H](n5cc(NC(=O)c6cnn7ccc(N[C@@H]8CCCC[C@@H]8O)nc67)c(C(F)(F)F)n5)CC4)CC3)c21 (stereo partly drawn) [I-153] | – | – | > 1000 nM | 10 to 100 nM | –
Cn1c(=O)n(C2CCC(=O)NC2=O)c2ccc(CN3CCN(C[C@H]4CC[C@H](n5cc(NC(=O)c6coc(-c7ccnc(NCC8CC8)c7)n6)c(C(F)F)n5)CC4)CC3)cc21 (stereo partly drawn) [I-243] | – | – | > 1000 nM | < 10 nM | –
Cn1c(=O)n(C2CCC(=O)NC2=O)c2ccc(CCCOC3CCN(C[C@H]4CC[C@H](n5cc(NC(=O)c6coc(-c7ccnc(NCC8CC8)c7)n6)c(C(F)F)n5)CC4)CC3)cc21 (stereo partly drawn) [I-118] | – | – | > 1000 nM | < 10 nM | –
O=C1CCC(N2Cc3c(NCCOCC4CCN(C[C@H]5CC[C@H](n6cc(NC(=O)c7cnn8ccc(N9C[C@H]%10C[C@@H]9CO%10)nc78)c(C(F)F)n6)CC5)CC4)cccc3C2=O)C(=O)N1 (stereo partly drawn) [I-374] | – | – | > 1000 nM | > 1000 nM | 10 to 100 nM
O=C1CCC(N2C(=O)c3cccc(N4CCC(CCCN5CCC(n6cc(NC(=O)c7cnn8ccc(N[C@@H]9CCCC[C@@H]9O)nc78)c(C(F)F)n6)CC5)CC4)c3C2=O)C(=O)N1 (stereo partly drawn) [I-298] | – | – | 100 to 500 nM | 100 to 1000 nM | –
CN(CCCNc1cccc2c1C(=O)N(C1CCC(=O)NC1=O)C2=O)C1CCN(C(=O)[C@H]2CC[C@H](n3cc(NC(=O)c4cnn5ccc(C6C[C@H]7C[C@@H]6CO7)nc45)c(C(F)F)n3)CC2)CC1 (stereo partly drawn) [I-358] | – | – | 50 to 100 nM | > 1000 nM | 10 to 100 nM
Cn1c(=O)n(C2CCC(=O)NC2=O)c2ccc(CCCOCCC(=O)N3CCN([C@H]4CC[C@H](Nc5ncnc6[nH]cc(C7CCOCC7)c56)CC4)CC3)cc21 (stereo partly drawn) [I-21] | – | – | 500 to 1000 nM | > 1000 nM | > 1000 nM
O=C1CCC(N2Cc3c(NCC4CCN(C[C@H]5CC[C@H](C6N=C(NC(=O)c7cnn8ccc(N9C[C@H]%10C[C@@H]9CO%10)nc78)C(C(F)F)=N6)CC5)CC4)cccc3C2=O)C(=O)N1 (stereo partly drawn) [I-380] | – | – | > 1000 nM | 100 to 1000 nM | 10 to 100 nM
O=C1CCC(N2C(=O)c3cccc(NCCCCCCC[C@H]4CC[C@H](n5cc(NC(=O)c6cnn7ccc(N8C[C@H]9C[C@@H]8CO9)nc67)c(C(F)F)n5)CC4)c3C2=O)C(=O)N1 (stereo partly drawn) [I-354] | – | – | > 1000 nM | > 1000 nM | –
CN(CCOCCOCCOC12CC3CC(CC(C3)C1)C2)C[C@H]1CC[C@H](n2cc(NC(=O)c3coc(-c4ccnc(NCC5CC5)c4)n3)c(C(F)F)n2)CC1 [I-174] | – | – | > 1000 nM | > 1000 nM | > 1000 nM
Cn1c(=O)n(C2CCC(=O)NC2=O)c2cccc(CN3CCC(CN4CCC(n5cc(NC(=O)c6coc(-c7ccnc(NCC8CC8)c7)n6)c(C(F)F)n5)CC4)CC3)c21 (stereo not drawn) [I-265] | – | – | < 50 nM | 10 to 100 nM | –
CN(C[C@H]1CC[C@H](n2cc(NC(=O)c3cnn4ccc(NCC5CC5)nc34)c(C(F)F)n2)CC1)[C@H]1CC[C@H](Nc2cccc3c2C(=O)N(C2CCC(=O)NC2=O)C3=O)CC1 (stereo partly drawn) [I-453] | 10 to 100 nM | < 10 nM | 50 to 100 nM | – | –
Cc1ccc(-n2nc(C3CCN(C(=O)CCCCOCCCc4cccc5c4n(C)c(=O)n5C4CCC(=O)NC4=O)CC3)cc2NC(=O)c2cnn3cccnc23)nc1 (stereo not drawn) [I-160] | – | – | > 1000 nM | > 1000 nM | > 1000 nM
CN(CCC1CCN(c2cccc3c2C(=O)N(C2CCC(=O)NC2=O)C3=O)CC1)C[C@H]1CC[C@H](n2cc(NC(=O)C3CNN4C=CC(N5CCOCC5)=NC34)c(C(F)F)n2)CC1 (stereo partly drawn) [I-223] | – | – | > 1000 nM | 10 to 100 nM | –
N#CCc1ccc2c(N[C@H]3CC[C@H](N4CCN(C(=O)COCCOCCOCCOCCNc5cccc6c5C(=O)N(C5CCC(=O)NC5=O)C6=O)CC4)CC3)ncnc2c1 (stereo partly drawn) [I-52] | – | – | 100 to 500 nM | > 1000 nM | –
O=C1CCC(N2C(=O)c3cccc(NCC(=O)N4CC5(CCN(C[C@H]6CC[C@H](n7cc(NC(=O)c8cnn9ccc(N%10CCOCC%10)nc89)c(C(F)F)n7)CC6)CC5)C4)c3C2=O)C(=O)N1 (stereo partly drawn) [I-443] | < 10 nM | < 10 nM | < 50 nM | – | –
O=C1CCC(N2C(=O)c3cccc(NCC4CCN(Cc5ccc(-n6cc(NC(=O)c7cnn8ccc(N9C[C@H]%10C[C@@H]9CO%10)nc78)c(C(F)F)n6)cc5)CC4)c3C2=O)C(=O)N1 (stereo partly drawn) [I-489] | 100 to 1000 nM | > 1000 nM | < 50 nM | – | –

Structure (SMILES) | DC50 (IRAK4; [1]) | DC50 (IRAK4; [2]) | IC50 (OCI-LY10) | DC50 (IRAK4; [3]) | DC50 (IRAK4; [4])
CN(CCN1CCO[C@@H](CCNc2cccc3c2C(=O)N(C2CCC(=O)NC2=O)C3=O)C1)C[C@H]1CC[C@H](n2cc(NC(=O)c3coc(-c4ccnc(NCC5CC5)c4)n3)c(C(F)F)n2)CC1 (stereo partly drawn) [I-339] | – | – | 50 to 100 nM | 10 to 100 nM | 10 to 100 nM
O=C1CCC(n2c3cccc(CCCOC4CCN(C[C@H]5CC[C@H](n6cc(NC(=O)c7cnn8ccc(N9CCOCC9)nc78)c(C(F)F)n6)CC5)CC4)c3c3cccnc32)C(=O)N1 (stereo partly drawn) [I-196] | – | – | > 1000 nM | 10 to 100 nM | –
C[C@H]1CN(c2ccn3ncc(C(=O)Nc4cn([C@H]5CC[C@H](CN6CCC(OCCCc7cccc8c7n(C)c(=O)n8C7CCC(=O)NC7=O)CC6)CC5)nc4C(F)F)c3n2)C[C@H](C)O1 (stereo partly drawn) [I-285] | – | – | > 1000 nM | 10 to 100 nM | –
O=C1CCC(N2C(=O)c3cccc(NCCCOC[C@@H]4CN(C[C@H]5CC[C@H](n6cc(NC(=O)c7coc(-c8ccnc(NCC9CC9)c8)n7)c(C(F)F)n6)CC5)CCO4)c3C2=O)C(=O)N1 (stereo partly drawn) [I-353] | – | – | 100 to 500 nM | 10 to 100 nM | 10 to 100 nM
CN(CCCOCCCc1cccc2c1n(C)c(=O)n2C1CCC(=O)N(C)C1=O)C[C@H]1CC[C@H](n2cc(NC(=O)c3coc(-c4ccnc(NCC5CC5)c4)n3)c(C(F)F)n2)CC1 (stereo partly drawn) [I-246] | – | – | > 1000 nM | 100 to 1000 nM | –
CN(C[C@H]1CC[C@H](n2cc(NC(=O)c3coc(-c4ccnc(NCC5CC5)c4)n3)c(C(F)F)n2)CC1)C1CCN(Cc2cccc3c2n(C)c(=O)n3C2CCC(=O)NC2=O)CC1 (stereo partly drawn) [I-400] | – | – | < 50 nM | < 10 nM | –
Cn1c(=O)n(C2CCC(=O)NC2=O)c2ccc(CCCOC3CCN(C[C@H]4CC[C@H](n5cc(NC(=O)c6cnn7ccc(N8CCOCC8)nc67)c(C(F)F)n5)CC4)CC3)cc21 (stereo partly drawn) [I-176] | – | – | > 1000 nM | 10 to 100 nM | –
CN(CC1CCN(Cc2ccc3c(c2)n(C)c(=O)n3C2CCC(=O)NC2=O)CC1)C[C@H]1CC[C@H](n2cc(NC(=O)c3coc(-c4ccnc(NCC5CC5)c4)n3)c(C(F)F)n2)CC1 (stereo partly drawn) [I-127] | – | – | > 1000 nM | < 10 nM | < 10 nM
Cn1c(=O)n(C2CCC(=O)NC2=O)c2ccc(CCCCOCCCCNCC(=O)N3CCN([C@H]4CC[C@H](Nc5ncnc6[nH]cc(C7CCOCC7)c56)CC4)CC3)cc21 (stereo partly drawn) [I-23] | – | – | 50 to 100 nM | 10 to 100 nM | < 10 nM
Cc1ccc(-n2nc(C3CCN(CCCCCOCCCc4cccc5c4n(C)c(=O)n5C4CCC(=O)NC4=O)CC3)cc2NC(=O)c2cnn3cccnc23)nc1 (stereo not drawn) [I-272] | – | – | > 1000 nM | > 1000 nM | > 1000 nM
Cc1ccc(-n2nc(C3CCN(CCCCCOCCCc4ccc5c(c4)n(C)c(=O)n5C4CCC(=O)NC4=O)CC3)cc2NC(=O)c2cnn3cccnc23)nc1 (stereo not drawn) [I-273] | – | – | > 1000 nM | > 1000 nM | > 1000 nM
NCCCOCCCNC[C@H]1CC[C@H](n2cc(NC(=O)c3coc(-c4ccnc(NCC5CC5)c4)n3)c(C(F)F)n2)CC1 [I-235] | – | – | > 1000 nM | > 1000 nM | > 1000 nM
Cc1nc2cccc(N(C)CCCOC3CCN(C[C@H]4CC[C@H](n5cc(NC(=O)c6cnn7ccc(N8CCOCC8)nc67)c(C(F)F)n5)CC4)CC3)c2c(=O)n1C1CCC(=O)NC1=O (stereo partly drawn) [I-214] | – | – | > 1000 nM | > 1000 nM | > 1000 nM
CN(CCCc1cccc2c1n(C)c(=O)n2C1CCC(=O)NC1=O)C[C@H]1CC[C@H](n2cc(NC(=O)c3coc(-c4ccnc(NCC5CC5)c4)n3)c(C(F)F)n2)CC1 (stereo partly drawn) [I-130] | – | – | > 1000 nM | < 10 nM | –
CN(CCCOCCCNC(=O)c1ccc(CNCc2ccc(-c3ccc4c(cnn4CC4CC4)c3)cc2)cc1)C(=O)[C@H]1CC[C@H](n2cc(NC(=O)c3coc(-c4ccnc(NCC5CC5)c4)n3)c(C(F)F)n2)CC1 [I-132] | – | – | > 1000 nM | > 1000 nM | > 1000 nM
O=C1CCC(N2Cc3c(OCc4ccc(CN5CCN(C[C@H]6CC[C@H](n7cc(NC(=O)c8cnn9ccc(N%10CCOCC%10)nc89)c(C(F)F)n7)CC6)CC5)cc4)cccc3C2=O)C(=O)N1 (stereo partly drawn) [I-377] | – | – | < 50 nM | > 1000 nM | < 10 nM
Cn1c(=O)n(C2CCC(=O)NC2=O)c2cccc(CCN3CC4(CCN(C[C@H]5CC[C@H](n6cc(NC(=O)c7cnn8ccc(N9CCOCC9)nc78)c(C(F)F)n6)CC5)CC4)C3)c21 (stereo partly drawn) [I-183] | – | – | < 50 nM | < 10 nM | < 10 nM
O=C1CCC(N2C(=O)c3cccc(NCCCOC4CCN(Cc5ccc(-n6cc(NC(=O)c7cnn8ccc(N9C[C@H]%10CC9CO%10)nc78)c(C(F)F)n6)cc5)CC4)c3C2=O)C(=O)N1 (stereo partly drawn) [I-438] | – | – | 50 to 100 nM | 100 to 1000 nM | 10 to 100 nM
